Measurements published in patent US8371376B2, “Method for pre-treatment of subterranean sites adjacent to water injection wells” (E. I. du Pont de Nemours and Company, priority 2010, dated 2013).

Test: Titration of sand/amine/brine mixture with 1N HCl, amine concentration by GC
Format: physicochemical
Settings: initial pH 8.4, before HCl addition; 380 ppm expected if all dissolved
Protocol: Helium was used as the carrier gas.
38 milligrams (mg) of N N-Dimethyl-1-Dodecanamine (hereafter referred to as “the amine”) was added to 10.210 gr of Pentane. This solution was added to 10.1845 gr of specific sand layers (Oa and Ob) obtained from the Schrader Bluff formation of the Milne Point Unit of the Alaskan North slope. The oil content of the sand was first removed using a mixture of methanol and toluene (50/50, volume/volume) as solvent washes. The solvent mixture was subsequently evaporated off the core sand to produce clean, dry, flowable core sand. This sand was mixed with the amine and pentane solution to produce a slurry. This slurry was thoroughly mixed and the pentane was evaporated off leaving the amine on the sand (hereafter referred to as sand/amine mixture). 100 ml of brine #2 (Table 3) was added to the sand/amine mixture to create the sand/amine/brine mixture. […] The fact that the amine was not detected underlined its strong binding to the sand particles. […] The data underlines the remarkable efficiency of an acid at ionizing and removing the amine from the sand.

## CCCCCCCCCCCCN(C)C [N-N-dimethyl-1-dodeanamine, N N-Dimethyl-1-Dodecanamine]
  amine conc. in sand/amine/brine mixture: < 1 ppm
